Assays:
[1] = tested on: washed human platelets; test: Collagen-induced platelet aggregation; assay type: cell-based; details: Platelet; washed human platelets, collagen (5 μg/mL)
Summary of the method: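 Washed platelets from ACD-anticoagulated blood of healthy donors, stirred at 1200 rpm, 37 °C in a turbidimetric aggregometer. Aggregation triggered by U46619 or collagen, scored as maximal rise in light transmission.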

[2] = tested on: washed human platelets coincubated with A549, MDA-MB-231, or RPMI8226 cancer cells; test: Tumor cell-induced platelet aggregation (TCIPA); assay type: cell-based; details: 2 μM; A549, MDA-MB-231, RPMI8226 cells, in the presence of plasma
[3] = tested on: washed human platelets coincubated with A549 cancer cells; test: Tumor cell-induced platelet secretion (PDGF, ATP); assay type: cell-based
Description: (§1) (a) Washed human platelets were coincubated with A549 cancer cells under the same conditions as described in Figure 4. Secretion of PDGF and ATP were determined with the enzyme-linked immunosorbent assay (ELISA) and bioluminescent assay, respectively. (b) A549 cancer cells were coincubated with washed human platelets at 37 °C and 5% CO2 in a cell culture incubator for 48 h. After washing with PBS, the numbers of viable cancer cells were determined by trypan blue exclusion. Data are mean ± SEM of at least three independent experiments.
Washed human platelets were coincubated with cancer cells under the same conditions as described in the TCIPA assay. After a 25 min incubation in the aggregometer, the samples were centrifuged at 13,000g for 1 min. The concentrations of PDGF-BB and ATP in the supernatants were determined using an ELISA kit (Abcam, Cambridge, UK) and an ATP bioluminescent assay kit (Sigma, MO, USA), respectively.[52]

[4] = tested on: A549 cancer cells; test: Platelet-enhanced tumor cell proliferation; assay type: cell-based, human; details: A549 plus platelets, 48 h, 0.5 to 2 μM
Description: In order to examine platelet-enhanced cancer cell growth, A549 cancer cells were coincubated with platelets for 48 h.
as §1, with “Figure 5 Inhibitory effects of JUG derivatives 18 and 22 on tumor cell-induced platelet secretion and platelet-enhanced tumor cell proliferation. (a)” for “(a)”, “experiments. In (a), *P < 0.05; **P < 0.01; ***P < 0.001 as compared with vehicle control (DMSO). In (b), *P < 0.05; **P < 0.01; ***P < 0.001 as compared with A549 cells plus platelets.” for “experiments.”
A549 cells (1 × 10^4 cells/well) were seeded in a 96-well plate and coincubated with wash human platelets (1 × 10^7 cells/well) containing with 0.375% plasma for 48 h at 37 °C and 5% CO2 in a cell culture incubator. After washing with phosphate buffered saline, the numbers of viable cancer cells were determined by trypan blue exclusion.

- IC50 [1]: 560 ± 170 nM
Compound: CC(=O)OC1O[C@H](CSC2=CC(=O)c3cccc(O)c3C2=O)[C@@H](OC(C)=O)C(OC(C)=O)[C@H]1OC(C)=O (stereo in doubt) [Compound 18, 2-(1,2,3,4-Tetra-O-acetyl-6-deoxy-6-thio-α-D-glucopyranose)-8-hydroxynaphthalene-1,4-dione]
- prevention of TCIPA [2]: significantly prevented TCIPA
- tumor cell-induced increase in extracellular PDGF and ATP (platelet secretion) [3]: reduced
- platelet-enhanced cancer cell growth [4]: blunted platelet-enhanced cancer cell growth
